Laboratory results: patent US20250197408A1, “CRYSTALLINE FORMS AND SALTS OF A PI3K INHIBITOR AND METHODS OF MAKING AND METHODS OF USE THEREOF” (Totus Medicines Inc., priority 2022, published 2025)
Converted amounts (≈) assume the structure as drawn.

How the values were obtained:
[1] = Solubility in 7 aqueous pH buffers and bio-relevant fluids at 37° C. (HPLC of supernatant; residual solids by XRPD); assay type: physicochemical; settings: for solubility at 2 h / solubility at 24 h: thermodynamic from solid
Experimental: 20 mg of the free base Form A of Compound I was weighed into a 20 mL glass vial. Amounts of the salts equivalent to 20 mg anhydrous free base were weighed into a glass vial. 10 mL of solubility medium was added. The resulting suspensions/solutions were stirred at 37° C. at 400 rpm and sampled at 2 hours and at 24 hours, respectively. The samples were centrifuged at 37° C. at 14,000 rpm for 5 min. Supernatants were analyzed by HPLC and pH meter for solubility and pH value, respectively. Residual solids (wet cakes) from the 24 hours samples were also characterized by XRPD to determine physical form.
Residual solids after the solubility test were analyzed by XRPD.

[2] = Dynamic vapor sorption (DVS) analysis at 25° C.; assay type: physicochemical
Experimental: In one embodiment, the crystalline forms are characterized by Dynamic Vapor Sorption (DVS). The DVS profile is typically expressed by a diagram plotting the sample relative humidity (RH) versus the change in mass (%). The DVS profile provides information on hygroscopicity of the crystalline form at different RH conditions.
A DVS (dynamic vapor sorption) analysis at 25° C. was carried out on Form A** of Compound I benzenesulfonate salt as shown in FIG. 3D.

[3] = ES1, pH 1.2 HCl solution (0.1N), 37° C.
[4] = ES2, pH 4.5 acetate buffer (50 mM), 37° C.
[5] = ES3, pH 6.8 phosphate buffer (50 mM), 37° C.
[6] = ES4, pH 7.4 phosphate buffer (50 mM), 37° C.
[7] = aqueous buffer, ES2, pH 4.5 acetate buffer (50 mM), 37° C.
[8] = aqueous buffer, ES3, pH 6.8 phosphate buffer (50 mM), 37° C.
[9] = aqueous buffer, ES4, pH 7.4 phosphate buffer (50 mM), 37° C.
[10] = simulated gastric fluid, ES1, pH 1.2 HCl solution (0.1N), 37° C.
[11] = simulated gastric fluid, ES5, SGF, pH 2.0, 37° C.

C=CC(=O)NCC(=O)N1CCN(Cc2cc3c(N4CCOCC4)nc(-c4cnc(NC(=O)OC)cc4C(F)(F)F)nn3c2)CC1 [Form A of Compound I, methyl (5-(6-((4-(acryloylglycyl)piperazin-1-yl)methyl)-4-morpholinopyrrolo[2,1-f][1,2,4]triazin-2-yl)-4-(trifluoromethyl)pyridin-2-yl) carbamate]
pH of supernatant, solubility for 2 h (pH) [1, 3]: (1.2)
pH of supernatant, solubility for 24 h (pH) [1, 3]: (1.0)
pH of supernatant, solubility for 2 h (pH) [1, 4]: (4.5)
pH of supernatant, solubility for 24 h (pH) [1, 4]: (4.4)
pH of supernatant, solubility for 2 h (pH) [1, 5]: (6.8)
pH of supernatant, solubility for 24 h (pH) [1, 5]: (6.7)
pH of supernatant, solubility for 2 h (pH) [1, 6]: (7.5)
pH of supernatant, solubility for 24 h (pH) [1, 6]: (7.4)
pH of supernatant, solubility for 2 h (pH) ([1]; ES5, SGF, pH 2.0, 37° C.): (2.0)
pH of supernatant, solubility for 24 h (pH) ([1]; ES5, SGF, pH 2.0, 37° C.): (1.9)
pH of supernatant, solubility for 2 h (pH) ([1]; ES6, FaSSIF-v1, pH 6.5, 37° C.): (6.5)
pH of supernatant, solubility for 24 h (pH) ([1]; ES6, FaSSIF-v1, pH 6.5, 37° C.): (6.5)
pH of supernatant, solubility for 2 h (pH) ([1]; ES7, FeSSIF-v1, pH 5.0, 37° C.): (5.0)
pH of supernatant, solubility for 24 h (pH) ([1]; ES7, FeSSIF-v1, pH 5.0, 37° C.): (5.0)
solubility at 2 h [1, 7]: 200 µg/mL (≈ 317 µM)
solubility at 24 h [1, 7]: 300 µg/mL (≈ 475 µM)
solubility at 2 h [1, 8]: 2.9 µg/mL (≈ 4.59 µM)
solubility at 24 h [1, 8]: 5.1 µg/mL (≈ 8.07 µM)
solubility at 2 h [1, 9]: 2.2 µg/mL (≈ 3.48 µM)
solubility at 24 h [1, 9]: 3.8 µg/mL (≈ 6.02 µM)
solubility at 2 h [1, 10]: 1200 µg/mL (≈ 1900 µM)
solubility at 24 h [1, 10]: 1000 µg/mL (≈ 1580 µM)
solubility at 2 h [1, 11]: > 2000 µg/mL
solubility at 24 h [1, 11]: > 2000 µg/mL
solubility at 2 h ([1]; ES6, FaSSIF-v1, pH 6.5, 37° C.): 9.4 µg/mL (≈ 14.9 µM)
solubility at 24 h ([1]; ES6, FaSSIF-v1, pH 6.5, 37° C.): 11.5 µg/mL (≈ 18.2 µM)
solubility at 2 h ([1]; ES7, FeSSIF-v1, pH 5.0, 37° C.): 600 µg/mL (≈ 950 µM)
solubility at 24 h ([1]; ES7, FeSSIF-v1, pH 5.0, 37° C.): 600 µg/mL (≈ 950 µM)
hygroscopicity / water sorption behavior (DVS) [2]: slightly hygroscopic
solid form of the sample after the DVS test [2]: still the free base Pattern A
water uptake (DVS) ([2]; from 40% to 95% RH): about 1.4%
